Experimental findings from article PMC9666779 (Frontiers in Pharmacology, 2022) are described below.

SMILES strings stand for the structures. Bridge positions count the residues as written; N and C are the ends. Square brackets hold non-standard residues; d marks the D form. Peptide text beside a SMILES is read from it.

The assay relates to pseudotyped SARS-CoV-2 Omicron BA.2.75. The note with it: pseudotyped Omicron BA.2.75, 1 h, 2 μM.

On to `CC(C)C[C@@H]1NC(=O)[C@H](C(C)C)NC(=O)[C@H](C)NC(=O)[C@H](Cc2ccc(O)cc2)NC(=O)[C@H](CCC(N)=O)NC(=O)[C@H](CC(C)C)NC(=O)[C@@H](Cc2ccccc2)NC(=O)[C@H](N)CSSC[C@H](C(=O)NCC(=O)NCC(=O)NCC(=O)N[C@@H](CCCNC(=N)N)C(=O)N2CCC[C@H]2C(=O)N2CCC[C@H]2C(=O)N[C@@H](CCCNC(=N)N)C(=O)N[C@@H](CCCNC(=N)N)C(=O)N[C@@H](C)C(=O)N[C@@H](CCCNC(=N)N)C(=O)O)NC(=O)[C@H](CCC(=O)O)NC(=O)[C@H](CCCNC(=N)N)NC(=O)[C@H](CCCNC(=N)N)NC(=O)[C@H](CCCCN)NC(=O)[C@H](CCC(N)=O)NC(=O)[C@H](CCCCN)NC1=O` [MN-2] (H-[dC][dF]LQYAVLKQKRRE[dC]GGGRPPRRAR-OH; disulfide 1-15), for which the “inhibition rate of the variant Omicron BA.2.75 pseudovirus” value was “about 80%”.
